Experimental data: patent US8911998B2, “Methods for identifying fragile histidine triad (FHIT) interaction and uses thereof” (priority 2007, dated 2014)
Peptide text beside a SMILES is read from it. * marks the point of attachment. Cbz = O=C(OCc1ccccc1)*

Assays:
H1299 E1 cells [1] = assay: Flow cytometry (propidium iodide) of PonA-treated Fhit-negative control cells; assay type: cell-based; conditions: for sub-G1 population: 48 h
Experimental: (§8) FIG. 4E, FACS analysis of D1 and E1 cell cycle kinetics at 48 h after oxidative stress treatment. Cells were treated with PonA for 48 h and then with increasing concentrations of H2O2 (0.25 and 0.5 mM) for 4 h. Analysis was at 48 h after H2O2 treatment. All experiments were performed twice in triplicate.
(§9) FIG. 6C and FIG. 6D, the graphs show representative results of flow cytometry analyses of E1 and D1 cells. Cells were treated with PonA for 48 h and then with paclitaxel (50-500 ng/ml) (FIG. 6C) or cisplatin (0.05-0.2 mM) (FIG. 6D). Each data point was measured in triplicate at 24, 48, and 72 h (data shown for 48 h).
(§10) PonA-induced H1299 D1 and E1 cells were treated with 0.25 and 0.5 mM H2O2 or with chemotherapeutic drugs and incubated for varying times, as indicated in the text and figures. For both experiments the cells were collected, washed with phosphate-buffered saline, and resuspended in cold 70% ethanol. For analysis, cells were spun down, washed in phosphate-buffered saline, and suspended in 0.1 mg/ml propidium iodide/Triton X-100 staining solution (0.1% Triton X-100, 0.2 mg/ml DNase-free RNase A) for 30 min at room temperature and analyzed by flow cytometry.

H1299/D1 cells = assay: Colony formation assay; assay type: cell-based; conditions: Fhit-expressing cells, 0.25 mM or higher H2O2, 5-h treatment
Experimental: FIG. 4F, colony formation assay of H1299/D1 and H1299/E1 cells after […] PonA stimulation and a 5-h H2O2 treatment at the indicated concentrations.

H1299 D1 cells [2] = assay: ROS assessment by hydroethidine FACS, Fhit-positive cells; assay type: cell-based; conditions: 5 μM PonA 48 h
Experimental: (§1) FIG. 4B, FACS analysis for ROS assessment by the fluorescence produced from the oxidation of hydroethidine in D1 and E1 cells; 48 h after PonA treatment, cells were treated for 5 h with 0.5 and 1.0 mM H2O2 and oxidative stress was measured; % positive refers to the fraction of fluorescent cells, indicating ROS. These experiments were repeated three times with similar results.
(§2) A similar experiment was performed with p53 and Fhit negative lung cancer-derived H1299 D1 and E1 clones carrying PonA-inducible FHIT and empty vector expression plasmids, respectively; the cells were treated with 5 μM PonA and at 48 h treated with 0.5 and 1.0 mM H2O2; the % ROS-positive cells was higher in Fhit-positive D1 cells than in E1 control cells (20 versus 3.5% at 0.5 mM H2O2, and 78 versus 25% at 1.0 mM H2O2, respectively) (FIG. 4B).
(§3) Assessment of Intracellular Reactive Oxygen Species (ROS)—Intracellular superoxide was measured through ethidium fluorescence as a result of oxidation by hydroethidine (dihydroethidium-HE; Molecular Probes). […] Fluorescence was measured by flow cytometry. […] DCF fluorescence was measured by flow cytometry on a FAC-Scan flow cytometer and fluorescence microscopy.

H1299 D1 cells [3] = assay: Flow cytometry (propidium iodide) of PonA-induced Fhit-expressing cells; assay type: cell-based; conditions: for sub-G1 population: 48 h
Experimental: as §8, §9, §10

[4] = system: A549 cells (empty vector); assay: Intracellular superoxide (ROS) by hydroethidine FACS, empty vector-transfected cells; assay type: cell-based, human
Experimental: (§4) FIG. 4A, fluorescence-activated cell sorter (FACS) analysis for ROS assessment in A549 cells 48 h after transfection with FHIT plasmid, with and without a 5-h H2O2 treatment. Empty vector-transfected cells served as control. Intracellular superoxide was determined according to the fluorescence of ethidium as a result of oxidation of hydroethidine by O2. M2 refers to the fraction of ROS positive cells.
(§5) The inventors herein then investigated determine whether ROS production could be involved in Fhit-mediated apoptosis. […] The inventors examined ROS production in A549 cells, with and without H2O2 treatment, after transient transfection with the FHIT expression plasmid. Intracellular superoxide was assessed by measuring ethidium fluorescence, as a result of oxidation of hydroethydine by superoxide. Intracellular superoxide was measured 5 h after stimulation with increasing concentrations of H2O2.
(§6) Assessment of Intracellular Reactive Oxygen Species (ROS)—Intracellular superoxide was measured through ethidium fluorescence as a result of oxidation by hydroethidine (dihydroethidium-HE; Molecular Probes). MNK74 stably Fhit expressing cells, A549 cells transiently expressing Fhit, and H1299 inducible Fhit expressing cells were treated with 0.5, 1.0, 2.0, and 4.0 mM H2O2 at 37° C.; 4 h later, hydroethidine (10 μM) was added to cells and incubated for 15 min at 37° C. Fluorescence was measured by flow cytometry. Dichlorofluorescein diacetate (DCFH-DA) (Molecular Probes) was used in D1 cells expressing induced Fhit, stressed with H2O2 (0.1 to 1.0 mM), treated with 10 μM DCFH-DA, and incubated for 1 h at 37° C. DCF fluorescence was measured by flow cytometry on a FAC-Scan flow cytometer and fluorescence microscopy.

H1299 D1 and E1 cells = assay: MTS cell viability assay, D1 compared with E1 cells; conditions: for sensitivity of D1 cells relative to E1 cells (MTS cell viability): after induction of Fhit expression, paclitaxel 50-500 ng/ml or cisplatin 0.05-0.2 mM, 24 or 48 h
Experimental: FIG. 4D, MTS cell viability assays were performed on E1 and D1 cells. Cells were treated with PonA for 48 h and then with increasing concentrations of H2O2 (0.125, 0.25, and 0.5 mM) for 4 h. Analysis was at 24 h after H2O2 treatment. Columns report the average of four experiments ±S.E. Each point was measured in quadruplicate and standard deviation calculated; p<0.05 was considered significant.
MTS assays performed on E1 and D1 cells. Cells were treated with PonA for 48 h and then treated with paclitaxel (50-500 ng/ml) (FIG. 6A) or cisplatin (0.05-0.2 mM) (FIG. 6B) for 24 or 48 h.
Chemotherapeutic Drug Treatment—Paclitaxel (Sigma) was dissolved in DMSO as a 10 mmol/liter stock solution and stored at −80° C. Cisplatin (Sigma) was dissolved in water and freshly prepared before use. H1299 D1 and E1 cells were seeded (1×10^4 cells/well) in 96-well culture plates, PonA-induced, and after 24 h treated with paclitaxel (50, 100, and 500 ng/ml) or cisplatin (0.05, 0.1, and 0.2 mM). H1299 D1 and E1 cells PonA-induced were incubated for 24, 48, and 72 h and assessed for viability with an MTS kit (Cell Titer 96® Aqueous MTS kit, Upstate Biotechnology, Lake Placid, N.Y.), as recommended by the manufacturer.

[5] = system: A549 cells transiently expressing Fhit; assay: Intracellular superoxide (ROS) by hydroethidine FACS, FHIT plasmid-transfected cells; assay type: cell-based, human
Experimental: as §4, §5, §6

H1299 E1 cells [6] = assay: ROS assessment by hydroethidine FACS, control cells; assay type: cell-based; conditions: 5 μM PonA 48 h
Experimental: as §1, §2, §3

MKN74A116 cells = assay: ROS assessment in gastric cancer cells expressing exogenous Fhit; assay type: cell-based, human; conditions: Fhit-expressing MKN74 cells, 2 mM H2O2, 5 hr
Experimental: FIG. 10. TABLE 2, Fhit induces generation of ROS in MKN74 gastric cancer cells. ROS assessment was performed with MKN74A116, a human gastric cancer cell line carrying a p53 mutant allele and expressing exogenous Fhit; Fhit-negative MKN74E4 cells were used as a control. To induce ROS generation, we treated MKN74 cells for 5 hr with 0.5, 1.0 and 2.0 mM H2O2. […] Numbers report the average of four experiments ±S.E.
as §6

Fdxr in D1 and E1 cells = assay: Immunoblot of Fdxr protein level after proteasome inhibition; assay type: cell-based; conditions: 4 h after MG132 treatment (25 μA)
Experimental: FIG. 5B, immunoblot analysis of Fdxr expression in D1 and E1 cells after a 4-h treatment with 25 μA MG132, a proteasome inhibitor.
(§7) Western Blot Analysis—Immunoblot analyses were performed as described (13) using monoclonal anti-pentaHis (Qiagen); rabbit polyclonal anti-Fhit (Zymed Laboratories Inc.); rabbit polyclonal antisera against GFP, Hsp60, Hsp10, and cytochrome c (Santa Cruz Biotechnology); rabbit polyclonal anti-Fdxr (Abcam); monoclonal anti-CoxIV (Molecular Probes); anti-V5 (Sigma); anti-Parp1 (Santa Cruz Biotechnology); and anti-caspase 3 (Cell Signaling). Protein levels were normalized relative to β-actin or/and GAPDH^3 level, detected with appropriate antisera (Santa Cruz Biotechnology).

PonA-induced D1 cells = assay: Immunoblot of caspase 3 and Parp1 cleavage; assay type: cell-based; conditions: 48 h; paclitaxel 50 and 100 ng/ml, cisplatin 0.05 and 0.1 mM; compared with untreated cells
Experimental: FIG. 6E, caspase 3 and Parp1 cleavage: immunoblot analyses, using Fhit, caspase 3, and Parp1 antisera, of total cell lysates from PonA-induced D1 cells after 48 h of treatment with paclitaxel (50 and 100 ng/ml) or cisplatin (0.05 and 0.1 mM). GAPDH served as loading control.
At 24 and 72 h (data not shown) increased sub-G1 populations in D1 compared with E1 cells were also detected. To determine whether the sub-G1 fractions of D1 cells represented apoptotic cells, lysates were prepared from drug-treated cells at 48 h and immunoblot analysis performed for caspase 3 and Parp1 cleavage (FIG. […]).
as §7

For OO [H2O2], the G2/M arrest (H1299 E1 cells [1]; 48 h after 0.25 mM H2O2) was 27.5%, the G2/M arrest (H1299 E1 cells [1]; 48 h after 0.5 mM H2O2) was 29% and the colony formation (H1299/D1 cells) was “No colonies were detected”. The “% ROS-positive cells” value (H1299 D1 cells [2]; 0.5 mM H2O2) was 20%, the “% ROS-positive cells” value (H1299 D1 cells [2]; 1.0 mM H2O2) was 78% and the G2/M arrest (H1299 D1 cells [3]; 48 h after 0.25 mM H2O2) was 45.5%. For the same compound, the G2/M arrest (H1299 D1 cells [3]; 48 h after 0.5 mM H2O2) was 49.5%, the “ROS generation (fraction of ROS positive cells)” value ([4]; empty vector A549, 0.5 mM H2O2, 5 h) was 5.4% and the “ROS generation (fraction of ROS positive cells)” value ([4]; empty vector A549, 1.0 mM H2O2, 5 h) was 7.7%. The toxicity to cells ([4]; non-expressing A549, 2 mM H2O2) was “not to non-expressing cells”, the “cell viability (MTS cytotoxicity assay)” value (H1299 D1 and E1 cells; 24 h after H2O2 treatment (0.125, 0.25, 0.5 mM, 4 h)) was “reduced cell viability or growth arrest in both E1 and D1 cells, but this phenotype was more pronounced in D1 cells” and the “ROS generation (fraction of ROS positive cells)” value ([5]; FHIT-transfected A549, 0.5 mM H2O2, 5 h) was 16.7%. The “ROS generation (fraction of ROS positive cells)” value ([5]; FHIT-transfected A549, 1.0 mM H2O2, 5 h) was 18.8%, the toxicity to cells ([5]; Fhit-expressing A549, 2 mM H2O2) was “toxic” and the “% ROS-positive cells” value (H1299 E1 cells [6]; 0.5 mM H2O2) was 3.5%. For the same compound, the “% ROS-positive cells” value (H1299 E1 cells [6]; 1.0 mM H2O2) was 25% and the toxicity to cells (MKN74A116 cells) was “toxicity was observed”.

In the case of CC(C)C[C@@H](C=O)NC(=O)[C@H](CC(C)C)NC(=O)[C@H](CC(C)C)NC(=O)OCc1ccccc1 [MG132] (Cbz-Leu-Leu-Leu-aldehyde), the “Fdxr protein level in D1 cells compared with E1 cells” value (Fdxr in D1 and E1 cells) is reported as “significant increase”.

N.N.[Cl][Pt][Cl] [cisplatin, Cisplatin] showed a sub-G1 population (H1299 E1 cells [1]; cisplatin 0.05 mM) of 2.3%, a sub-G1 population (H1299 E1 cells [1]; cisplatin 0.1 mM) of 7% and a sub-G1 population (H1299 E1 cells [1]; cisplatin 0.2 mM) of 14.6%. The “activated caspase 3 and related Parp1 cleavage” value (PonA-induced D1 cells) was “observed”, the sub-G1 population (H1299 D1 cells [3]; cisplatin 0.05 mM) was 5% and the sub-G1 population (H1299 D1 cells [3]; cisplatin 0.1 mM) was 16.2%. The sub-G1 population (H1299 D1 cells [3]; cisplatin 0.2 mM) was 30% and the “sensitivity of D1 cells relative to E1 cells (MTS cell viability)” value (H1299 D1 and E1 cells) was “more sensitive”.

With CC(=O)O[C@H]1C(=O)[C@@]2(C)[C@H]([C@H](OC(=O)c3ccccc3)[C@]3(O)C[C@H](OC(=O)[C@H](O)[C@@H](NC(=O)c4ccccc4)c4ccccc4)C(C)=C1C3(C)C)[C@]1(OC(C)=O)CO[C@@H]1C[C@@H]2O [paclitaxel, Paclitaxel] the sub-G1 population (H1299 E1 cells [1]; paclitaxel 50 ng/ml) was 4%, the sub-G1 population (H1299 E1 cells [1]; paclitaxel 100 ng/ml) was 16.7% and the sub-G1 population (H1299 E1 cells [1]; paclitaxel 500 ng/ml) was 30%. The “activated caspase 3 and related Parp1 cleavage” value (PonA-induced D1 cells) was “observed”, the sub-G1 population (H1299 D1 cells [3]; paclitaxel 50 ng/ml) was 9.6% and the sub-G1 population (H1299 D1 cells [3]; paclitaxel 100 ng/ml) was 36%. For the same compound, the sub-G1 population (H1299 D1 cells [3]; paclitaxel 500 ng/ml) was 40% and the “sensitivity of D1 cells relative to E1 cells (MTS cell viability)” value (H1299 D1 and E1 cells) was “more sensitive”.
